Tested on: Gram-positive bacterial strains
Assay: activity against Gram-positive bacterial strains
Type: cell-based
Settings: compound produced by AQP4511 in PDY medium supplemented with 0.5 mM NaNO3
Procedure: A Streptomyces sp. strain AQP4511 produced a red orange compound, which has a naphthoquinone structure, in a PDY medium supplemented with 0.5 mM NaNO3.

## COc1cc(O)c2c(c1)C(=O)C1=C(C2=O)C(OC(C)=O)C(O)C(C)O1 (stereo not shown) [Gunacin]
  activity against most of Gram-positive bacterial strains: very strong activity

— patent US20100144003A1, “INDUCTION OF MICROBIAL SECONDARY METABOLITES” (AQUAPHARM BIO-DISCOVERY LIMITED, priority 2007, published 2010)
